Experimental data taken from US8075916B2, “Poly(organophosphazene) hydrogels for drug delivery, preparation method thereof and use thereof” (Korea Institute of Science and Technology, priority 2007, dated 2011).

Assays:
[1] = tested on: Stomach cancer cells, SNU-601; experiment: In vivo anti-cancer activity of hydrogel containing paclitaxel in nude mouse tumour model; conditions: 60 mg/kg, day 10 after administration, ten mice per group
Protocol: A nude mouse (Oriental Bio, Balb/C, female of 5-weeks old, 20 g) was used as an animal model for animal experimentation for an in vivo test. Stomach cancer cells, SNU-601 (1×10^7 cells, 0.2 ml, Korean Cell Line Bank), were injected into the dorsum of the mouse. […] 0.2 ml of the solution was injected into the cancer cells, and the change in the size of the cells was measured. […] Each test was conducted for ten (10) mice for each of the control groups and the experimental groups.

[2] = pH 7.4
Protocol: The solutions were put into a chamber of a Brookfield DV-III+ Rheometer equipped with a thermostatic bath (TC-501). The sol-gel phase transition was observed while raising the temperature at the rate of 0.04° C./min and a shear rate of 0.1 to 1.7 per second.
(temperature)” means the temperature where the viscosity of the polymer solution reaches the maximum point, and the term “Max. gel solidity” means the maximum viscosity of the polymer solution.
Such two polymers with contrary properties were mixed in various mixture ratios, and then their sol-gel phase transition with temperature change was observed.

[3] = biological target: T1, albumin (Bovine Serum Albumin; BSA) (Bos taurus, UniProt P02769); experiment: Formation of ionic bond between additives and protein drug (polyacrylamide gel electrophoresis); assay type: binding; conditions: additive 0.02, 0.1, 1 and 2 mg/ml in 0.01% albumin solution
T1 construct: 0.01% albumin solution (Bovine Serum Albumin; BSA, Wako chemical); purchased Wako chemical
Protocol: In order to confirm the formation of an ion bond between the additives and drugs, gel electrophoresis was conducted. […] BSA, Wako chemical) at various concentrations (0.02, 0.1, 1 and 2 mg/ml) and sufficiently stirred.

T1 sequence (P02769 25-607): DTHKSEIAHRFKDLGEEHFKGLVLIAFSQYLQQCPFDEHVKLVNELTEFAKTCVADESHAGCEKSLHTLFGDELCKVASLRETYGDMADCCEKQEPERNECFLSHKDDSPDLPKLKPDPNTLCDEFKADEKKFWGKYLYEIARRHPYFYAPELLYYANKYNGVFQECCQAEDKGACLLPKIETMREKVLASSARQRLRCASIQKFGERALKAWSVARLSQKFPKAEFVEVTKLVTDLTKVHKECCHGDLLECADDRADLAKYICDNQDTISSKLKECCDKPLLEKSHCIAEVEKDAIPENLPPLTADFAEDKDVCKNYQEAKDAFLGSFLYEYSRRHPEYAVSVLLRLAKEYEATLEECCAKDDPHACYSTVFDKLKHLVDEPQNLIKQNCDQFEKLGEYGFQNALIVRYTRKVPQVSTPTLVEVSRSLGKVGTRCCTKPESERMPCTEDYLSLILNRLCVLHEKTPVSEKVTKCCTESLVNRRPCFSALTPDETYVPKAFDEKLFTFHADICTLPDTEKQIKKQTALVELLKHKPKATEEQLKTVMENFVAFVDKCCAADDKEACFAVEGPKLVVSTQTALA

| Compound | Max. gelling temp. [2] | also measured |
| --- | --- | --- |
| CC(=O)O[C@H]1C(=O)[C@@]2(C)[C@H]([C@H](OC(=O)c3ccccc3)[C@]3(O)C[C@H](OC(=O)[C@H](O)[C@@H](NC(=O)c4ccccc4)c4ccccc4)C(C)=C1C3(C)C)[C@]1(OC(C)=O)CO[C@@H]1C[C@@H]2O [paclitaxel] |  | mice died due to toxicity [1]: 8 mice |
| poly[(isoleucine ethyl ester) (aminomethoxy polyethylene glycol 550)(aminoethylsuccinate)(aminoethylsuccinate ethylene hyaluronic acid)phosphazene] [Example 22] | 38 °C |  |
| poly[(isoleucine ethyl ester)(aminomethoxy polyethylene glycol 550)(aminoethylsuccinate)phosphazene] [Example 18] | 37 °C |  |
| poly[(isoleucine ethyl-ester)(aminomethoxy polyethylene glycol 550)(glycylleucine)phosphazene] [Example 9] | 46 °C |  |
| protamine |  | ionic bond with albumin: development on polyacrylamide gel [3]: worse development property of the gel as the concentration of the additive is higher |
